Source: PMC5444710, “Enhancement of radiosensitivity by the novel anticancer quinolone derivative vosaroxin in preclinical glioblastoma models” (Oncotarget, 2017)

Legend:
beclin-1 = assay: Beclin-1 expression (Western blot and ELISA); type: cell-based, human; settings: after vosaroxin treatment at IC20; U87MG, U251, T98G
Description: Cells grown in 90 mm diameter Petri dishes were treated and at various timepoints were washed with cold phosphate-buffered saline (PBS) and immediately lysed with 1 mL radioimmunoprecipitation assay (RIPA) buffer containing protease and phosphatase inhibitor cocktail. Total lysates were electrophoresed in SDS-PAGE (7%), and separated proteins transferred to nitrocellulose and probed with the appropriate antibodies using the conditions recommended by the suppliers. Protein levels in total extracts were normalized to actin. After appropriate treatments, tumor cell cultures and tissues were harvested for analysis of cytokine expression. Cell pellets were washed with PBS and lysed with RIPA buffer. Cell lysates and conditioned media were assayed by ELISA to measure (i) active human caspase-3 (CBA045, Merck Chemicals Ltd., Nottingham, UK), (ii) beclin-1 (E98557Hu, USCN Life Sciences, Houston, TX, USA), and (iii) DNA damage (EpiQuik in situ DNA Damage Assay Kit, Epigentek, Farmingdale, NY, USA).

A172 cells = assay: Clonogenic survival assay; type: cell-based, human
Description: (§1) For clonogenic survival assays, exponentially growing cells (70% confluence) were cultured in regular media and treated with vosaroxin, at the appropriate concentrations, or vehicle (final dimethyl sulfoxide concentration of 0.1%) for 48 hours. Tumor cells were then irradiated at room temperature with increasing doses of radiation (0–6 Gy) using an x-ray linear accelerator (dose rate of 200 cGy/min). Nonirradiated controls were handled identically to the irradiated cells with the exception of the radiation exposure. […] […] Colonies containing more than 50 cells were counted. The plating efficiency was calculated as the number of colonies observed divided by the number of cells plated. The surviving fraction was calculated as the number of colonies formed in the treated dishes compared with the number formed in the control. The survival curves were analyzed using SPSS statistical software (Chicago, IL, USA) by means of a fit of the data by a weighted, stratified, linear regression, according to the linear-quadratic formula: S(D)/S(O) = exp-(αD + βD2). The cell survival enhancement ratio was calculated as the ratio of the mean inactivation dose under control conditions divided by the mean inactivation dose after treatment as previously described.

T98G cells = assay: Clonogenic survival assay; type: cell-based, human
Description: as §1

U251 cells = assay: Clonogenic survival assay; type: cell-based, human
Description: as §1

U87MG cells = assay: Clonogenic survival assay; type: cell-based, human
Description: as §1

[1] = system: 13 human glioma cell lines and three patient-derived glioblastoma stem cell lines; assay: Cell viability / growth inhibition, whole panel; type: cell-based
Description: (§2) Cells were seeded at a density of 2 × 10^4 cells/mL in 24-well plates. Cells were […] to attach and grow in 5% fetal bovine serum in DMEM for 24 hours. Cells were treated with different doses of radiation or temozolomide and then maintained in the appropriate culture conditions. At the conclusion of the treatment period, cells were trypsinized and resuspended in 1.0 mL of saline; viable cells were counted using the NucleoCounter^TM NC-100 (Chemotec, […], Denmark). All experiments were conducted in triplicate. IC50 values were calculated using GraFit (Erithacus Software Limited, Staines, UK).

SW1783 glioma cell line = assay: Inhibition of proliferation (cell viability); type: cell-based; settings: Homo sapiens
Description: as §2

LN18 glioma cell line = assay: Inhibition of proliferation (cell viability); type: cell-based; settings: Homo sapiens, LN-18
Description: as §2

T98G glioma cell line = assay: Inhibition of proliferation (cell viability); type: cell-based; settings: Homo sapiens
Description: as §2

U87MG glioma cell line = assay: Inhibition of proliferation (cell viability); type: cell-based; settings: Homo sapiens, U-87 MG
Description: as §2

A172 glioma cell line = assay: Inhibition of proliferation (cell viability); type: cell-based; settings: Homo sapiens, A 172
Description: as §2

SNB19 glioma cell line = assay: Inhibition of proliferation (cell viability); type: cell-based; settings: Homo sapiens, SNB-19
Description: as §2

D54 glioma cell line = assay: Inhibition of proliferation (cell viability); type: cell-based; settings: Homo sapiens
Description: as §2

U118 glioma cell line = assay: Inhibition of proliferation (cell viability); type: cell-based; settings: Homo sapiens
Description: as §2

U138 glioma cell line = assay: Inhibition of proliferation (cell viability); type: cell-based; settings: Homo sapiens
Description: as §2

U373 glioma cell line = assay: Inhibition of proliferation (cell viability); type: cell-based; settings: Homo sapiens, U373 MG
Description: as §2

LN229 glioma cell line = assay: Inhibition of proliferation (cell viability); type: cell-based; settings: Homo sapiens, LN-229
Description: as §2

U251 glioma cell line = assay: Inhibition of proliferation (cell viability); type: cell-based; settings: Homo sapiens, U-251
Description: as §2

SF268 glioma cell line = assay: Inhibition of proliferation (cell viability); type: cell-based; settings: Homo sapiens, SF-268
Description: as §2

[2] = concentration equal to IC20, analyzed at 21 days of culture
[3] = irradiated 2, 4, 6 Gy 48 hours after drug exposure, calculated at a surviving fraction of 0.10

Compound: CN[C@H]1CN(c2ccc3c(=O)c(C(=O)O)cn(-c4nccs4)c3n2)C[C@@H]1OC [vosaroxin]
- RT-induced levels of beclin-1 (beclin-1): significantly reduced
- surviving fraction, vosaroxin alone (A172 cells; [2]): 0.87 ± 0.18
- dose enhancement factor (A172 cells; [3]): 1.24
- surviving fraction, vosaroxin alone (T98G cells; [2]): 0.84 ± 0.036
- dose enhancement factor (T98G cells; [3]): 1.40
- surviving fraction, vosaroxin alone (U251 cells; [2]): 0.80 ± 0.064
- dose enhancement factor (U251 cells; [3]): 1.33
- surviving fraction, vosaroxin alone (U87MG cells; [2]): 0.77 ± 0.18
- dose enhancement factor (U87MG cells; [3]): 1.55
- IC20 ([1]; Glioma cell, glioma cells used in clonogenic studies, read-out: IC20 values in growth inhibition assays, range): 10 to 100 nM
- IC50 ([1]; read-out: IC50 values, range over all cell lines tested): 12.8 to 260 nM
- IC50 (SW1783 glioma cell line): 260 ± 9.8 nM
- IC50 (LN18 glioma cell line): 90 ± 12.5 nM
- IC20 (T98G glioma cell line): 45 nM
- IC50 (T98G glioma cell line): 64.5 ± 11 nM
- IC20 (U87MG glioma cell line): 65 nM
- IC50 (U87MG glioma cell line): 141 ± 84.7 nM
- IC50 (A172 glioma cell line): 125 ± 89.4 nM
- IC50 (SNB19 glioma cell line): 35.5 ± 7 nM
- IC50 (D54 glioma cell line): 190 ± 25.4 nM
- IC50 (U118 glioma cell line): 88.5 ± 16.7 nM
- IC50 (U138 glioma cell line): 65.8 ± 14.6 nM
- IC50 (U373 glioma cell line): 78.4 ± 9.7 nM
- IC50 (LN229 glioma cell line): 12.8 ± 2.3 nM
- IC20 (U251 glioma cell line): 15 nM
- IC50 (U251 glioma cell line): 18.6 ± 2.4 nM
- IC50 (SF268 glioma cell line): 50.3 ± 12 nM
